In patent publication US20070066601A1, “Combination of a serotonin reuptake inhibitor and a histamine 3 receptor antagonist, inverse agonist or partial agonist” (H. LUNDBECK A/S, priority 2003, published 2007):

How the values were obtained:
cortex synaptosomes = details: cited from earlier work
[1] = system: serotonin levels in ventral hippocampus; assay: Microdialysis of brain serotonin levels in rats; assay type: in vivo, rat; details: for effect on 5-HT levels when compared to citalopram administration alone: P<0.0001
Procedure: Male albino rats of a Wistar-derived strain (285-320 g; Harlan, Zeist, The Netherlands) were used for the experiments. Upon surgery, rats were housed individually in plastic cages (35×35×40 cm), and had free access to food and water. Animals were kept on a 12 h light schedule (light on 7:00 a.m.). The experiments are concordant with the declarations of Helsinki and were approved by the animal care committee of the faculty of mathematics and natural science of the University of Groningen.
Microdialysis of brain serotonin levels was performed using home made I-shaped probes, made of polyacrylonitrile/sodium methyl sulfonate copolymer dialysis fiber (i.d. 220 μm, o.d. 300 μm, AN 69, Hospal, Italy). Preceding surgery rats were anaesthetised using isoflurane (O2/N2O; 300/300 ml/min). Lidocaine-HCl, 10 % (m/v) was used for local anaesthesia. Rats were placed in a stereotaxic frame (Kopf, USA), and probes were inserted into Ventral Hippcampus (V. Hippo, L +4.8 mm, […], V: −8.0 mm) and median prefrontal cortex (PFC, L −0.9 mm; AP: +3.5 mm relative to bregma; V: −6.0 mm (Paxinos and Watson, 1982). After insertion, probes were secured with dental cement.
Rats were allowed to recover for at least 24 h. Probes were perfused with artificial cerebrospinal fluid containing 147 mM NaCl, 3.0 mM KCl, 1.2 mM CaCl2, and 1.2 mM MgCl2, at a flow-rate of 1.5 μl/min (Harvard apparatus, South Natick, Mass., USA). 15 minute microdialysis samples were collected in HPLC vials containing 7.5 μl 0.02 M acetic acid for serotonin analysis.
Twenty-μl microdialysate samples were injected via an autoinjector (CMA/200 refrigerated microsampler, CMA, Sweden) onto a 100×2.0 mm C18 Hypersil 3 μm column (Bester, Amstelveen, the Netherlands) and separated with a mobile phase consisting of 5 g/L di-ammoniumsulfate, 500 mg/L EDTA, 50 mg/L heptane sulphonic acid, 4% methanol v/v, and 30 μI/L of triethylamine, pH 4.65 at a flow of 0.4 ml/min (Shimadzu LC-10 AD). 5-HT was detected amperometrically at a glassy carbon electrode at 500 mV vs Ag/AgCl (Antec Leyden, Leiden, The Netherlands). The detection limit was 0.5 fmol 5-HT per 20 μl sample (signal to noise ratio 3).
Four consecutive microdialysis samples with less then 20% variation were taken as control and set at 100%. Data are presented as percentages of control level (mean±S.E.M.) in time. Statistical analysis was performed using Sigmastat for Windows (SPSS, Jandel Corporation). Treatments were compared versus controls using two way analysis of variance (ANOVA) for repeated measurements, followed by Student Newman Keuls test. Level of significance level was set at p<0.05.

C[C@@H](N)Cc1cnc[nH]1 [R-(alphe)-methylhistamine]
effect on electrical evoked release of tritiated serotonin (cortex synaptosomes): inhibited

O=C(c1ccc(OCCCc2cnc[nH]2)cc1)C1CC1 [ciproxifan, Ciproxifan]
effects on serotonin levels in ventral hippocampus ([1]; ciproxifan alone, 15 mg/kg s.c., P=0.54 n.s.): did not induce any effects
effect on 5-HT levels when compared to citalopram administration alone ([1]; co-administration of citalopram 10 μmol/kg with ciproxifan 15 mg/kg s.c.): augmented effect

S=C(NC1CCCCC1)N1CCC(c2cnc[nH]2)CC1 [thioperamide, Thioperamide]
effect on 5-HT levels when compared to citalopram administration alone ([1]; co-administration of citalopram 10 μmol/kg with thioperamide 5 mg/kg s.c.): augmented effect
effects on serotonin levels in ventral hippocampus ([1]; thioperamide alone, 5 mg/kg s.c., P=0.44 n.s.): did not induce any effects
effect on the inhibition of evoked serotonin release by R-(alphe)-methylhistamine (cortex synaptosomes): reversed
